This note sets out measurements from patent publication US20260337211A1, “IP5 SUBSTITUTED COMPOUNDS” (SANIFIT THERAPEUTICS, S.A., priority 2022, published 2026).

Where a name gives a salt, the structure may show the parent alone. Read-outs that look alike come from different tables or passages of the source. Bounds are passed on as bounds.

This experiment is described as follows: In vitro inhibition of calcium phosphate crystallization in human plasma (spectrophotometric, 550 nm). The experiment is classed as biochemical. Conditions: 0-100 μM compound, 1.5 mM phosphate and 12.5 mM calcium, pH 7.4, 30 min at rt, slope between 6 and 24 min, read-out: Relative Potency (EC50). The method, then:
The in vitro efficacy of the IP5 substituted compounds (e.g., Compounds 1 to 32) of the invention on the inhibition of calcium phosphate crystallization in human plasma samples was evaluated according to a spectrophotometric assay previously described in the art (Ferrer M, et al., Sci Rep 2017; 7:6858, doi:10.1038/s41598-017-07203-x).
A 96-well plate was employed. Plasma was spiked (1 volume of the IP5 substituted compounds of the invention per 19 volumes of plasma) with increasing concentrations of the derivatives in the range of 0-100 μM. Plasma was then centrifuged at 10,000 g at rt and subsequently mixed with a mixture of 5 mM hydrogen phosphate and 41.67 mM calcium to attain final concentrations of 1.5 mM phosphate and 12.5 mM calcium, respectively. All reagent solutions were filtered, and pH adjusted to 7.4.
Crystallization of calcium phosphate was monitored spectrophotometrically for 30 min at rt by measuring the increments in absorbance at 550 nm using the Biotek Powerwave XS Microplate spectrophotometer (BioTek Instruments, Inc., Winooski, VT, US). The plate was incubated at rt in an orbital shaker and absorbance measured every 3 min.
Plasma crystallization was assessed based on slope measurement in the linear range between 6 and 24 min from plots of increase in absorbance versus logarithm of time. The efficacy of different myo-inositol phosphates derivatives in preventing in vitro formation of calcium phosphate crystals was assessed in human plasma samples using the slopes obtained between 6- and 24-min. Inhibition of crystallization was measured by comparing the slopes of the control sample (blank plasma) with those of samples containing the inhibitor as shown below: […]

In general, EC50 refers to the concentration that produces a half-maximal response. Consider “2-O-((1-(2-Carboxyethyl)-1H-1,2,3-triazol-4-yl)methyl)-myo-inositol-1,3,4,5,6-pentakis(phosphate) undecasodium salt [Compound 42]”, for which the EC50 fell in the range of 5 to 10 µM.
For `O=P(O)(O)OC1C(OCCCCCC(F)(F)F)C(OP(=O)(O)O)C(OP(=O)(O)O)C(OP(=O)(O)O)C1OP(=O)(O)O` (stereo not drawn) [Compound 36, 2-O-(6,6,6-Trifluorohexyl)-myo-inositol-1,3,4,5,6-pentakis(phosphate) decasodium salt], the EC50 (30 min) was not above 5 µM.
Turning to “2-O-(5-(4-(Methoxymethyl)-1H-1,2,3-triazol-1-yl)pentyl)-myo-inositol-1,3,4,5,6-pentakis(phosphate) decasodium [Compound 41]”, the EC50 is more than 10 µM.
The same measure, in the same setting: for `NC(=O)CCCCCOC1C(OP(=O)(O)O)C(OP(=O)(O)O)C(OP(=O)(O)O)C(OP(=O)(O)O)C1OP(=O)(O)O` (racemic) [Compound 33, rac-4-O-(6-Amino-6-oxohexyl)-myo-inositol-1,2,3,5,6-pentakis(phosphate) decasodium salt] the value was not above 5 µM; for “rac-4-O-(6,6,6-Trifluorohexyl)-myo-inositol-1,2,3,5,6-pentakis(phosphate) decasodium salt [Compound 13]”, not above 5 µM.
Take `O=P(O)(O)OC1C(OCCCCCn2cccn2)C(OP(=O)(O)O)C(OP(=O)(O)O)C(OP(=O)(O)O)C1OP(=O)(O)O` (racemic) [Compound 18, rac-4-O-(5-(1H-Pyrazol-1-yl)pentyl)-myo-inositol-1,2,3,5,6-pentakis(phosphate) decasodium salt]: the EC50 fell in the range of 5 to 10 µM.
Consider “rac-4-O-(6-Aminohexyl)-myo-inositol-1,2,3,5,6-pentakis(phosphate) decasodium salt [Compound 28]”, for which the EC50 is not above 5 µM.
Still for that read-out and setting: under “rac-4-O-(7-Methoxyheptyl)-myo-inositol-1,2,3,5,6-pentakis(phosphate) decasodium salt [Compound 23]” stands 5 to 10 µM; under “5-O-(9-Methoxynonyl)-myo-inositol-1,2,3,4,6-pentakis(phosphate) decasodium salt [Compound 31]”, 5 to 10 µM.
On to “5-O-(6,6,6-Trifluorohexyl)-myo-inositol-1,2,3,4,6-pentakis(phosphate) decasodium salt [Compound 45]”, for which the EC50 was in the range of 5 to 10 µM.
Same read-out and setting: under “rac-4-O-(5-Hydroxypentyl)-myo-inositol-1,2,3,5,6-pentakis(phosphate) decasodium salt [Compound 2]” stands not above 5 µM.
Still for that read-out and setting: for “rac-4-O-(6-(4-(carboxy)-1H-1,2,3-triazol-1-yl)hexyl)-myo-inositol-1,2,3,5,6-pentakis(phosphate) undecasodium salt [Compound 26]” the value was more than 10 µM; for “2-O-(19-methoxynonadecyl)-myo-inositol-1,3,4,5,6-pentakis(phosphate) decasodium salt [Compound 9]”, more than 10 µM; for “rac-4-O-Methyl-myo-inositol-1,2,3,5,6-pentakis(phosphate) decasodium salt [Compound 22]”, 5 to 10 µM.
Regarding `O=P(O)(O)OC1C(OCCCCCO)C(OP(=O)(O)O)C(OP(=O)(O)O)C(OP(=O)(O)O)C1OP(=O)(O)O` (stereo not drawn) [Compound 40, 2-O-(5-Hydroxypentyl)-myo-inositol-1,3,4,5,6-pentakis(phosphate) decasodium salt], the EC50 lay within 5 to 10 µM.
Still for that read-out and setting: for “rac-1-O-(5-Acetamidopentyl)-myo-inositol-2,3,4,5,6-pentakis(phosphate) decasodium salt [Compound 49]” the value was 5 to 10 µM; for “5-O-(2-Cyclopropylethyl)-myo-inositol-1,2,3,4,6-pentakis(phosphate) decasodium salt [Compound 30]”, 5 to 10 µM.
The same measure, in the same setting: for “rac-4-O-(2-(4-Acetylpiperazin-1-yl)ethyl)-myo-inositol-1,2,3,5,6-pentakis(phosphate) decasodium salt [Compound 5]” the value was not above 5 µM; for `COc1ccc(CCCOC2C(OP(=O)(O)O)C(OP(=O)(O)O)C(OP(=O)(O)O)C(OP(=O)(O)O)C2OP(=O)(O)O)cc1` (racemic) [Compound 14, rac-4-O-(3-(4-Methoxyphenyl)propyl)-myo-inositol-1,2,3,5,6-pentakis(phosphate) decasodium salt], not above 5 µM; for `Cc1ccc(CCCOC2C(OP(=O)(O)O)C(OP(=O)(O)O)C(OP(=O)(O)O)C(OP(=O)(O)O)C2OP(=O)(O)O)cc1` (racemic) [Compound 11, rac-4-O-(3-(p-Tolyl)propyl)-myo-inositol-1,2,3,5,6-pentakis(phosphate) decasodium salt], 5 to 10 µM.
For `COCCCCCCCCCO[C@H]1[C@@H](OP(=O)(O)O)[C@H](OP(=O)(O)O)[C@@H](OP(=O)(O)O)[C@H](OP(=O)(O)O)[C@H]1OP(=O)(O)O` [Compound 8, 2-O-(9-Methoxynonyl)-myo-inositol-1,3,4,5,6-pentakis(phosphate) decasodium salt], the EC50 was in the range of 5 to 10 µM.
For `O=P(O)(O)OC1C(OCCCCCC(F)(F)F)C(OP(=O)(O)O)C(OP(=O)(O)O)C(OP(=O)(O)O)C1OP(=O)(O)O` (racemic) [Compound 50, rac-1-O-(6,6,6-Trifluorohexyl)-myo-inositol-2,3,4,5,6-pentakis(phosphate) decasodium salt], the 50% effective concentration (EC50) (30 min) was in the range of 5 to 10 µM.
In the case of `NCCCOC1C(OP(=O)(O)O)C(OP(=O)(O)O)C(OP(=O)(O)O)C(OP(=O)(O)O)C1OP(=O)(O)O` (racemic) [Compound 27, rac-4-O-(3-Aminopropyl)-myo-inositol-1,2,3,5,6-pentakis(phosphate) decasodium salt], the EC50 is not above 5 µM.
In the case of `O=P(O)(O)OC1C(OCCC2CCCC2)C(OP(=O)(O)O)C(OP(=O)(O)O)C(OP(=O)(O)O)C1OP(=O)(O)O` (racemic) [Compound 16, rac-4-O-(2-Cyclopentylethyl)-myo-inositol-1,2,3,5,6-pentakis(phosphate) decasodium salt], the EC50 was not above 5 µM.
Still for that read-out and setting: under `O=P(O)(O)OC1C(OCCC2CCCC2)C(OP(=O)(O)O)C(OP(=O)(O)O)C(OP(=O)(O)O)C1OP(=O)(O)O` (racemic) [Compound 51, rac-1-O-(2-Cyclopentylethyl)-myo-inositol-2,3,4,5,6-pentakis(phosphate) decasodium salt] stands not above 5 µM.
“2-O-Propargyl-myo-inositol-1,3,4,5,6-pentakis(phosphate) decasodium salt [Compound 43]”: the EC50 was in the range of 5 to 10 µM.
On the same count and under the same terms, under `COCCCCCCCCCCCCCCCCCCCCCCCCCCCCCO[C@H]1[C@@H](OP(=O)(O)O)[C@H](OP(=O)(O)O)[C@@H](OP(=O)(O)O)[C@H](OP(=O)(O)O)[C@H]1OP(=O)(O)O` [Compound 10, 2-O-(29-methoxynonacosyl)-myo-inositol-1,3,4,5,6-pentakis(phosphate) decasodium salt] stands not above 5 µM; under “rac-4-O-(5-Acetamidopentyl)-myo-inositol-1,2,3,5,6-pentakis(phosphate) decasodium salt [Compound 19]”, 5 to 10 µM.
Same read-out and setting: for “rac-4-O-(10-Hydroxydecyl)-myo-inositol-1,2,3,5,6-pentakis(phosphate) decasodium salt [Compound 21]” the value was more than 10 µM; for `O=P(O)(O)OC1C(OCCC2CC2)C(OP(=O)(O)O)C(OP(=O)(O)O)C(OP(=O)(O)O)C1OP(=O)(O)O` (stereo not drawn) [Compound 39, 2-O-(2-Cyclopropylethyl)-myo-inositol-1,3,4,5,6-pentakis(phosphate) decasodium salt], 5 to 10 µM.
Still for that read-out and setting: for “rac-4-O-(10-Carboxyldecyl)-myo-inositol-1,2,3,5,6-pentakis(phosphate) undecasodium salt [Compound 20]” the value was more than 10 µM; for `O=P(O)(O)O[C@@H]1[C@@H](OP(=O)(O)O)[C@H](OP(=O)(O)O)[C@H](OCCC2CCCC2)[C@H](OP(=O)(O)O)[C@H]1OP(=O)(O)O` [Compound 38, 2-O-(2-Cyclopentylethyl)-myo-inositol-1,3,4,5,6-pentakis(phosphate) decasodium salt], 5 to 10 µM; for `NC(=O)CCCCCO[C@H]1[C@@H](OP(=O)(O)O)[C@H](OP(=O)(O)O)[C@@H](OP(=O)(O)O)[C@H](OP(=O)(O)O)[C@H]1OP(=O)(O)O` [Compound 37, 2-O-(6-Amino-6-oxohexyl)-myo-inositol-1,3,4,5,6-pentakis(phosphate) decasodium salt], 5 to 10 µM.
`CCCOC1C(OP(=O)(O)O)C(OP(=O)(O)O)C(OP(=O)(O)O)C(OP(=O)(O)O)C1OP(=O)(O)O` (stereo not drawn) [Compound 34, 2-O-Propyl-myo-inositol-1,3,4,5,6-pentakis(phosphate) decasodium salt]: the EC50 fell in the range of 5 to 10 µM.
Same read-out and setting: under “rac-4-O-Propyl-myo-inositol-1,2,3,5,6-pentakis(phosphate) decasodium salt [Compound 24]” stands not above 5 µM.
With “2-O-(5-Acetamidopentyl)-myo-inositol-1,3,4,5,6-pentakis(phosphate) decasodium salt [Compound 35]”, the half-maximal effective concentration (EC50) is more than 10 µM.
